Active and inactive are the calls of the source.
How the values were obtained:
[1] = target: Glyceraldehyde-3-phosphate dehydrogenase (Homo sapiens, UniProt P04406)
[2] = target: T1, Alkaline phosphatase, tissue-nonspecific isozyme (Homo sapiens, UniProt P05186); test: human TNAP enzyme inhibitors, SAR follow-up, biochemical, luminescent, dose response (AID 1056)
T1 sequence (P05186 whole entry): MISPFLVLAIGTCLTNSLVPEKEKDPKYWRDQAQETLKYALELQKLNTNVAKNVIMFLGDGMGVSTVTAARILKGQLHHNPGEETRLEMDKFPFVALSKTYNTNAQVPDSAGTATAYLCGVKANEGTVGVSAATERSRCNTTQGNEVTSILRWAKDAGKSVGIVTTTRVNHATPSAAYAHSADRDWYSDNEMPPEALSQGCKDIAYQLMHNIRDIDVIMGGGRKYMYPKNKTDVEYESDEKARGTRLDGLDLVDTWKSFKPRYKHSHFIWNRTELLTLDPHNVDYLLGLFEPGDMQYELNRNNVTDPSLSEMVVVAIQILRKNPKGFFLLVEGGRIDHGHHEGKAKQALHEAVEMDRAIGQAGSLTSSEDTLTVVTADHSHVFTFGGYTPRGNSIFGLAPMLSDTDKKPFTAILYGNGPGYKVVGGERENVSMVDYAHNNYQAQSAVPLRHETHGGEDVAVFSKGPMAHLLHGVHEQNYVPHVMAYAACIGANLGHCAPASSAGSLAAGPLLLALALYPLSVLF

Estrogen receptor beta [3] = target: T2, Estrogen receptor beta (Homo sapiens, UniProt Q92731);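 further: recombinant ER-beta bound to coactivator SRC1 peptide in presence of estradiol agonist; inhibitors block coactivator peptide binding and lower the FRET signal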
Estrogen receptor beta [4] = target: T2, Estrogen receptor beta; test: ERβ–SRC-3 coactivator interaction inhibitors, confirmation, orthogonal assay, biochemical, ELISA, streptavidin-HRP readout (AID 1060)
[5] = cytotoxicity in HEK-293T cells, dose response, cytotoxicity control for TCR NF-kB inhibitor project, luminescence, T-cell screen hits (AID 489026); assay type: functional, cell-based;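 further: cells exposed to compound about 14 hours before the viability readout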
[6] = Concentration-dependent survival of SW480 colon cancer line, luminescence detection with CellTiter-Glo, half-maximal inhibitory concentration (AID 1117338); assay type: functional
[7] = RKO cell viability reduction, dose response, CellTiter-Glo luminescence (AID 1117322); assay type: functional
[8] = cytotoxicity toward HCT116 cells – cell-based, CellTiter-Glo luminescence, IC50, dose response (AID 1117332); assay type: functional; details: HCT-116
[9] = SNU-C1 cell viability reduction, dose response, CellTiter-Glo luminescence (AID 1117323); assay type: functional, cell-based
[10] = cytotoxicity toward Colo320 cells – cell-based, CellTiter-Glo luminescence, IC50, dose response (AID 1117334); assay type: functional; details: COLO 320
[11] = cytotoxicity toward HT-29 cells – cell-based, CellTiter-Glo luminescence, IC50, dose response (AID 1117330); assay type: functional
[12] = CellTiter-Glo luminescent dose response of DLD-1 viability loss (AID 1117352); assay type: functional
[13] = HCT116 cell viability decrease, GSK3B pretreatment – CellTiter-Glo, IC50, dose response (AID 1117339); assay type: functional; details: HCT-116
[14] = A549 cell cytotoxicity, dose response, cytotoxicity control, plate reader, cherry-pick, antagonist series (AID 743412); assay type: functional, cell-based
[15] = MC4R antagonists, dose response, counter-screen for LGR2 antagonist project, cell-based, plate reader, cherry pick (AID 743444); assay type: functional;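 further: transfected HEK 293 cells stimulated with alpha-MSH peptide; potency of inhibitors of the alpha-MSH evoked signal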
[16] = tested on: Streptococcus sp. 'group A'; test: growth inhibition of control SK(-) GAS strain, dose response, counter-screen for streptokinase expression inhibitor project, luminescence, kanamycin, BacTiterGlo, confirmation (AID 1900); assay type: functional, organism-based
BJ [17] = test: cytotoxicity toward BJ-TERT fibroblasts, dose response, cell-based, RAS-independent, luminescence (AID 1933); assay type: functional; details: Homo sapiens
cells [18] = assay type: functional, cell-based
Streptokinase A = target: T3, Streptokinase A (Streptococcus pyogenes serotype M1, UniProt P10520); test: S. pyogenes streptokinase expression inhibitors, potency, dose response, plasminogen activation absorbance, OD405 (AID 1914); assay type: functional, Streptococcus pyogenes M1 GAS;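 further: secreted streptokinase activity via plasminogen activation per viability signal from cell pellet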
T3 sequence (P10520 whole entry): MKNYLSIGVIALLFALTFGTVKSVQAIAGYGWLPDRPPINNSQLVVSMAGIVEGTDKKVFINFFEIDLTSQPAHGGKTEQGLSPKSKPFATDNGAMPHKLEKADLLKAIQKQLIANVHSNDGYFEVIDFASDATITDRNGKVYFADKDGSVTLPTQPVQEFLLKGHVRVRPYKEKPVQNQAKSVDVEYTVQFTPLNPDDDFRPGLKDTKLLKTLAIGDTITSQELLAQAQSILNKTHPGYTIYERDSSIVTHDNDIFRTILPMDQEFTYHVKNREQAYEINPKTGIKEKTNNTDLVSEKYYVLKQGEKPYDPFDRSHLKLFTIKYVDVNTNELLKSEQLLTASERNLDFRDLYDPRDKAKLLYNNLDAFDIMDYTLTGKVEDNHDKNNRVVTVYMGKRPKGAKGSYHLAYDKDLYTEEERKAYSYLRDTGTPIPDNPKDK

BJ [19] = test: cells; assay type: functional, cell-based; details: Homo sapiens
cells [20] = assay type: functional, cell-based; remark: listed apart in the source
BJ [21] = test: cytotoxicity toward BJ-TERT-LT-ST fibroblasts, dose response, cell-based, RAS-independent, luminescence (AID 1935); assay type: functional; details: Homo sapiens;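 further: BJ fibroblasts immortalized with TERT plus LT and ST oncogenes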
[22] = cytotoxicity toward DRD oncogenic fibroblasts, dose response, cell-based, non-viral oncogenic, luminescence (AID 1934); assay type: functional; details: Homo sapiens
Streptococcus = test: Group A Streptococcus viability loss, dose response, counter-screen for streptokinase expression inhibitor project, luminescence, BacTiterGlo (AID 1915); assay type: functional, organism-based;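 further: potency for reduction of bacterial viability or growth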
HEK293 = test: inhibitors of LMP1-driven NF-kB reporter, dose response, cell-based, HEK293, luciferase, cherry-pick (AID 588343); assay type: functional; details: Homo sapiens
INS1 = test: beta cell apoptosis inhibitors, cytokine rescue, dose response, luminescence, retest (AID 449756); assay type: functional, cell-based; details: Rattus norvegicus;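 further: cell death triggered by IL-1 beta plus TNF-alpha plus IFN-gamma mixture; protective hits raise ATP signal compared with cytokine alone wells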

Glyceraldehyde-3-phosphate dehydrogenase, sequence (P04406 whole entry): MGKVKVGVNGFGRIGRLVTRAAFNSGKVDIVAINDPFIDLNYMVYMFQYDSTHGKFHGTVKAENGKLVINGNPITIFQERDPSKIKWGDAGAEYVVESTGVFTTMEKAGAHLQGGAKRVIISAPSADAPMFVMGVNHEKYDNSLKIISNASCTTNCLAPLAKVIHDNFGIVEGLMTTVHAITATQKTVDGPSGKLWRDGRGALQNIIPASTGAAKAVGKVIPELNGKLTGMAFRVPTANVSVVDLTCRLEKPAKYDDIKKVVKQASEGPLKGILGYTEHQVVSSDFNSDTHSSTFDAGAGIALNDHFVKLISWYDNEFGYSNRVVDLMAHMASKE
T2 sequence (Q92731 whole entry): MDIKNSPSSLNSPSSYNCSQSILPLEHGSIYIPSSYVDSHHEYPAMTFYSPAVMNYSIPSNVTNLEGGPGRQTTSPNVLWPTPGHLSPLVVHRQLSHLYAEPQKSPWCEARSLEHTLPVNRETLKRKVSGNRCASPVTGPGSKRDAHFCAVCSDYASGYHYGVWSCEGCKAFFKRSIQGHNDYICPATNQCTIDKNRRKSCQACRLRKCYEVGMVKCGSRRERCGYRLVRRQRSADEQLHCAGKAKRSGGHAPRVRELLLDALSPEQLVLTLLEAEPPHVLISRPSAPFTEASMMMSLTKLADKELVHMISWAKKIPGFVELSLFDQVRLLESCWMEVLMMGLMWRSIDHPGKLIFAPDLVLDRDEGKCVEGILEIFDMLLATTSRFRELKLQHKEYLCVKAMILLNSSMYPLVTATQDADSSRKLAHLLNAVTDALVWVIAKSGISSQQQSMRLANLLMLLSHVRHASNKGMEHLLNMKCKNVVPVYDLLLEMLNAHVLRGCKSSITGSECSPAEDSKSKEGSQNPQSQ

Compound: COc1ccc(S(=O)(=O)Nc2cnc3ccccc3c2)c(OC)c1
- IC50 [1]: > 100 µM (not active)
- IC50 [2]: 19.5 µM (active)

Compound: c1ccc(CN2CCN=C2c2cccnc2)cc1
- IC50 [1]: > 100 µM (not active)
- IC50 [2]: > 100 µM (inactive)

Compound: Cc1cc(C)c(C(=O)COc2cccnc2[N+](=O)[O-])cc1C
- IC50 (Estrogen receptor beta [3]): 7.21 µM (active)
- IC50 (Estrogen receptor beta [4]): > 50 µM (not active)

Compound: CCCc1cc(C(=O)N/N=C/c2ccc(CC)s2)c2ccccc2n1
- IC50 [5]: > 80 µM (inactive)

Compound: COC(=O)C1=C(C)NC(C)=C(C(=O)O[C@@H]2CCCN(Cc3ccccc3)C2)[C@@H]1c1cccc([N+](=O)[O-])c1
- IC50 [6]: > 20 µM (inactive)
- IC50 [7]: 8.05 µM (inactive)
- IC50 [8]: 4.28 µM (active)
- IC50 [9]: 5.76 µM (inactive)
- IC50 [10]: 19.5 µM (inactive)
- IC50 [11]: 5.27 µM (inactive)
- IC50 [12]: 7.96 µM (inactive)
- IC50 [13]: 5.31 µM (inactive)

Compound: O=C(Cc1ccncc1)NCC[C@H]1CC[C@H](NC(=O)C2CCCC2)[C@H](CO)O1
- AC50 [14]: > 52 µM (inactive)
- AC50 [15]: 42.1 µM (active)

Compound: CCOc1cccc(/C=N/Nc2ccc(S(=O)(=O)N(CC)CC)cn2)c1O
- EC50 [16]: 6.87 µM (active)
- EC50 (BJ [17]): 2.86 µM (active)
- EC50 (cells [18]): > 350 µM (not active)
- EC50 (Streptokinase A): > 150 µM (not active)
- EC50 (BJ [19]): 4.12 µM (active)
- EC50 (cells [20]): 49.6 µM (active)
- EC50 (BJ [21]): 7.7 µM (active)
- EC50 [22]: 3.94 µM (active)
- EC50 (Streptococcus): 9.29 µM (active)
- IC50 [5]: > 80 µM (inactive)
- AC50 (HEK293): 4.85 µM (active)
- AC50 (INS1): 1.12 µM (active)

Compound: CC1(C)[C@H](C=C(Cl)Cl)[C@@H]1C(=O)OCc1c(F)c(F)cc(F)c1F
- IC50 [6]: > 20 µM (inactive)
- IC50 [7]: > 20 µM (inactive)
- IC50 [8]: > 20 µM (inactive)
- IC50 [9]: > 20 µM (inactive)
- IC50 [10]: > 20 µM (inactive)
- IC50 [11]: > 20 µM (inactive)
- IC50 [12]: > 20 µM (inactive)
- IC50 [13]: > 20 µM (inactive)

Compound: CCCCC[C@@H](O)CC[C@H]1[C@@H]2Cc3cccc(OCC(=O)O)c3C[C@@H]2C[C@@H]1O
- IC50 [6]: > 20 µM (inactive)
- IC50 [7]: > 20 µM (inactive)
- IC50 [8]: > 20 µM (inactive)
- IC50 [9]: > 20 µM (inactive)
- IC50 [10]: > 20 µM (inactive)
- IC50 [11]: > 20 µM (inactive)
- IC50 [12]: > 20 µM (inactive)
- IC50 [13]: > 20 µM (inactive)

Compound: CCCCN1CCCC1C(=O)Nc1c(C)cc(C)cc1C (stereo not drawn) [BUMECAINE]
- IC50 [6]: > 20 µM (inactive)
- IC50 [7]: > 20 µM (inactive)
- IC50 [8]: > 20 µM (inactive)
- IC50 [9]: > 20 µM (inactive)
- IC50 [10]: > 20 µM (inactive)
- IC50 [11]: > 20 µM (inactive)
- IC50 [12]: > 20 µM (inactive)
- IC50 [13]: > 20 µM (inactive)

— ChEMBL document CHEMBL1201862, “PubChem BioAssay data set” (2004)
